Tested on: immortalised tenocytes, known as TENO (Teno Cell Line)
Test: type II MIFALC (Microtitration Fluorimetric Assay on Living Cells) test, H2DCF-DA fluorescence, tendon toxicity of fluoroquinolones/statins
Assay type: cell-based
Conditions: pretreatment with anethole-dithiolethione 20 μM, 72 hours before contact with the xenobiotics; free radicals by H2DCF-DA fluorescence read after 40 minutes
Method: The test carried out is a type II MIFALC (Microtitration Fluorimetric Assay on Living Cells) test, that is to say that all of the steps, including detection/disclosure, are carried out on living cells, the test using fluorimetric detection under cold light, in order to achieve the maximum level of detection sensitivity and specificity necessary for the intracellular studies. The tests are carried out on a line of immortalised tenocytes, known as TENO (Teno Cell Line).
The cultures are produced in […] flasks for cell multiplication and in plates having 96 shallow wells for culture.
The tenocytes are placed in suspension with a small amount of trypsin. When the cells are released, the action of the trypsin is blocked by the addition of culture medium containing fetal calf serum. After centrifuging, the residue is taken up by complete medium HAM F-12, then the cells are counted using a Malassez or Thoma hemocytometer. Next, a solution of 27,500 cells/ml is prepared in the complete culture medium and 200 μl are placed in each of the central 60 wells of the microplates having 96 wells. Therefore, there are 5,500 cells per well. The plates are placed in incubation at 37° C. in a humid atmosphere of air/CO2 (95%/5%). The test is carried out after 48 hours when the cells adhere to the support. […]
The fluorescence units are read after 40 minutes.

COc1ccc(-c2cc(=S)ss2)cc1 [anethole-dithiolethione]
protection against tendon toxicity (cytotoxic effect) of fluoroquinolones in cellular tenocyte model: protects against this tendon toxicity
